Source: US5043354A, “Pharmaceutically useful 5-hydroxy-2,3-dihydro-benzofurans and 5-hydroxy-benzofurans” (Fujisawa Pharmaceutical Co., Ltd., priority 1989, dated 1991)

What was measured:
[1] = system: rat brain homogenate; test: Inhibitory effect on iron-dependent lipid peroxidation of rat brain homogenate (TBA-reactive products); assay type: biochemical, rat (male Sprague-Dawley); conditions: 37° C, 20 min
Method: Inhibitory effect on iron-dependent lipid peroxidation of rat brain homogenate
Method : (reported by J. M. Braughler et al.^1))
After decapitation,the brain was quickly removed (minus cerebellum), weighed, and placed in ice-cold Krebs buffer solution. The brain was homogenized in a ratio of 1 g of wet tissue to 9 ml of buffer in a teflon homogenizer. Homogenates were used immediately in lipid p-roxidation assays as follows.
* HEPES : N-(2-hydroxyethyl)piperazine-N'-2-ethanesulfonic acid (Sigma)
To the reaction mixture consisted of 50 μl of 6.25 mg/ml brain homogenate in Krebs buffer solution, 110 μl of Krebs buffer solution, 20 μl of sample dissolved in methanol was added 20 μl of aqueous 2 mM Fe(NH4)2 (SO4)2 solution, which was prepared freshly, at 37° C. After 20 min, the reaction was terminated by the addition of 30 μl of 35% perchloric acid. Then 20 μl of 500 μM desferoxamine mesylate (Sigma) in Krebs buffer solution was added to the reaction mixture to prevent further lipid peroxydation. After centrifugation at 2000 xg, 10 min, 4° C., 50 μl of supernatant was subsequently assayed for lipid peroxide.
Lipid peroxide was assessed as TBA-reactive product as described by H. Ohkawa et al ^2). The reaction mixture consisted of 50 μl of above-mentioned supernatant, 100 μl of aqueous 8.1% sodium dodecyl sulfate (SDS) solution, 750 μl of aqueous 20% acetic acid solution which was adjusted with aqueous lN NaOH solution to pH 3.5, 750 μl of aqueous 0.67% 2-thiobarbituric acid solution and 350 μl of distilled water was boiled for 1 hour and cooled in ice bath rapidly. 0.5 ml of distilled water and 2.5 ml of the mixture of n-butanol and pyridine (15:1, V/V) were added, and the mixture was shaken vigorously. After centrifugation at 1250 xg for 10 min, the fluorescence (excitation; 515 nm, emission; […]) of the organic layer was determined.

[2] = molecular target: xanthine oxidase-hypoxanthine (XO/HX) reaction; test: Inhibitory effect on luminol-induced chemiluminescence (CL) which results from xanthine oxidase-hypoxanthine (XO/HX) reaction; assay type: biochemical, cow; conditions: 37° C, peak intensity, sample in dimethylsulfoxide
Method: Inhibitory effect on luminol-induced chemiluminescence (CL) which results from xanthine oxidase-hypoxanthine (XO/HX) reaction.
Four hundred and fifty micro liter of […] hypoxanthine (Kohjin Co., Ltd.) in 0.lM phosphate buffer solution (PBS)(pH 7.6), 10 μl of 1 mg/ml luminol (Nakarai Chemicals, Ltd.) in PBS and 10 μl of sample dissolved in dimethylsulfoxide were mixed in a round-bottomed vial, and preincubated for 3 min. at 37° C. And then, 50 μl of 0.05 unit/ml xanthine oxidase in 0.lM phosphate buffer solution (from cow milk, Boehringer Mannhein GmbH) was added. For the measurement of CL, a Biolumat (LB 9505, Berthold, FRG) was used. The vial containing XO/HX reaction mixture was placed into a Biolumat chamber at 37° C, and CL was continuously monitored using a computer (PC 9801 VM, NEC). Peak intensity was used as an index of CL.

[3] = Solubility; assay type: physicochemical

COc1cc2c(cc1O)CC(C(C)(C)O)O2 (stereo not shown) [Example 3, 2,3-Dihydro-2-(1-hydroxy-1-methylethyl)-6-methoxy-5-benzofuranol]
Inhibition of TBA-reactive products generation ([1]; concentration 10^-4 M): 95.5% | Inhibition of TBA-reactive products generation ([1]; concentration 10^-5 M): 45.4% | Inhibition of TBA-reactive products generation ([1]; concentration 10^-6 M): 20.0% | Inhibition of TBA-reactive products generation ([1]; concentration 10^-7 M): 11.4% | IC50 [2]: 320 nM | Solubility ([3]; chloroform, diethyl ether, ethyl acetate, acetone, methanol and ethanol): Soluble | Solubility ([3]; hexane, water): Sparingly Soluble

Cc1c(C)c2c(c(C)c1O)CCC(C)(CCCC(C)CCCC(C)CCCC(C)C)O2 (stereo not drawn) [α-Tocopherol, reference compound]
Inhibition of TBA-reactive products generation ([1]; concentration 10^-4 M): 65.3% | Inhibition of TBA-reactive products generation ([1]; concentration 10^-5 M): 25.7% | Inhibition of TBA-reactive products generation ([1]; concentration 10^-6 M): 9.3% | Inhibition of TBA-reactive products generation ([1]; concentration 10^-7 M): 0%

COc1cc2oc(C(C)C)cc2cc1O [Example 2, 5-hydroxy-6-methoxy-2-(1-methylethyl)benzofuran]
IC50 [2]: 4.7 nM

COc1cc2c(cc1O)CC(C(C)(C)O)O2 (racemic) [Example 1, 2,3-dihydro-2-(1-hydroxy-1-methylethyl)-6-methoxy-5-benzofuranol]
IC50 [2]: 380 nM
